Non-standard residues stand in square brackets, D forms with d. Residues, ends and D or L forms follow the SMILES beside them. Sar = CNCC(=O)O Bounds are passed on as bounds.

We go through 23 molecules from ChEMBL document CHEMBL1156471, “Targeting host cell furin proprotein convertases as a therapeutic strategy against bacterial toxins and viral pathogens” (J Biol Chem, 2007).

The target in the test is Furin (Homo sapiens, UniProt P09958).
Sequence of Furin (P09958 whole entry): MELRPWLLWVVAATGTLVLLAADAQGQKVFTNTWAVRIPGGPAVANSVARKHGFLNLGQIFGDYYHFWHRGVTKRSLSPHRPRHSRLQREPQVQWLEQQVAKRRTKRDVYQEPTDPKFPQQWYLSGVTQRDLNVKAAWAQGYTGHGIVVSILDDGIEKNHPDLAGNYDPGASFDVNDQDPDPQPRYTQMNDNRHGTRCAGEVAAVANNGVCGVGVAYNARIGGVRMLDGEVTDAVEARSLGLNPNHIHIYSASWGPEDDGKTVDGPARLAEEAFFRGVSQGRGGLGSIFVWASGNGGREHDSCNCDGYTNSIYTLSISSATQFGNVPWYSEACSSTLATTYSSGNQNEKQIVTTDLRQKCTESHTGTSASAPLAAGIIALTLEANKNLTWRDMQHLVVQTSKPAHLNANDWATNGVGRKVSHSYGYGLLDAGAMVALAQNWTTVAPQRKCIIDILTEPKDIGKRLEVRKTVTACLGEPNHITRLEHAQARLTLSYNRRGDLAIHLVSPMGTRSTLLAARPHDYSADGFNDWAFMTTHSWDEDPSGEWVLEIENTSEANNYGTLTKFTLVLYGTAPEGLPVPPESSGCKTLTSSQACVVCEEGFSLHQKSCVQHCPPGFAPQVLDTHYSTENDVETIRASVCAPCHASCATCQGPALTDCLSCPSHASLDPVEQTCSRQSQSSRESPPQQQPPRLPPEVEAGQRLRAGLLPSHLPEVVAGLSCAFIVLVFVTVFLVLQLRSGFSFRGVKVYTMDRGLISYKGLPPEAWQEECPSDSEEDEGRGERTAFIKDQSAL
Usually Ki stands for a measure of affinity in units of concentration, obtained from inhibition or displacement. A higher Ki goes with weaker binding. With `CSCC[C@H](NC(=O)[C@H](CCCN=C(N)N)NC(=O)[C@H](CCC(N)=O)NC(=O)[C@@H]1CCCN1C(=O)[C@@H](N)[C@@H](C)O)C(=O)N[C@@H](CCCN=C(N)N)C(=O)N[C@@H](CCCN=C(N)N)C(=O)N[C@@H](CCCN=C(N)N)C(=O)N[C@@H](CCCCN)C(=O)N[C@@H](CCCCN)C(=O)N[C@@H](CCCNC(=N)N)C(=O)NCC(=O)O`, the inhibition constant Ki is > 100 nM.

As to `CSC[C@H](NC(=O)[C@H](CCCNC(=N)N)NC(=O)[C@H](CCCCN)NC(=O)[C@H](CCCCN)NC(=O)[C@H](CCCNC(=N)N)NC(=O)[C@H](CCCNC(=N)N)NC(=O)[C@H](CCCNC(=N)N)NC(=O)[C@H](C)NC(=O)[C@H](CCCNC(=N)N)NC(=O)[C@H](CCC(N)=O)NC(=O)[C@@H]1CCCN1C(=O)[C@@H](N)[C@@H](C)O)C(=O)O` (H-TPQRARRRKKRC(Me)-OH), the Ki was 93 nM.

Take `C[C@H](NC(=O)[C@H](C)NC(=O)[C@@H]1CCCN1C(=O)[C@@H](N)[C@@H](C)O)C(=O)N[C@@H](CCCN=C(N)N)C(=O)N[C@@H](CCCN=C(N)N)C(=O)N[C@@H](CCCN=C(N)N)C(=O)N[C@@H](CCCCN)C(=O)N[C@@H](CCCCN)C(=O)N[C@@H](CCCN=C(N)N)C(=O)N(C)CC(=O)O` (H-TPAARRRKKR[Sar]-OH): the Ki was > 100 nM.

For the molecule `C[C@H](O)[C@H](N)C(=O)N1CCC[C@H]1C(=O)N[C@@H](CCCNC(=N)N)C(=O)N[C@H](CCC(=O)O)C(=O)N[C@@H](CCCNC(=N)N)C(=O)N[C@@H](CCCNC(=N)N)C(=O)N[C@@H](CCCNC(=N)N)C(=O)N[C@@H](CCCCN)C(=O)N[C@@H](CCCCN)C(=O)N[C@@H](CCCNC(=N)N)C(=O)NCC(N)=O`, the Ki is > 100 nM.

As for H-TPRERRAKKRG-NH2, the inhibitory constant (Ki) is > 100 nM.

As for H-TPRYRRRKKRG-NH2, the inhibition constant Ki is > 100 nM.

Regarding H-TPRQRRRKKRG-NH2, the Ki was > 100 nM.

For H-TPRERRRKKA-OH, the inhibition constant (Ki) was > 100 nM.

Consider H-TPREAARKKR-OH, for which the inhibitory constant (Ki) is > 100 nM.

H-TPRARRRKKRY-OH came in with a Ki of 53 nM.

H-TPRARRRKKRN-OH registered a Ki of 45 nM.

As for H-TPRARRRKKRW-OH, the affinity corresponds to a Ki of 59 nM.

`C[C@H](NC(=O)[C@H](CCCNC(=N)N)NC(=O)[C@H](CCCNC(=N)N)NC(=O)[C@H](CCCNC(=N)N)NC(=O)[C@H](CCC(=O)O)NC(=O)[C@H](CCCNC(=N)N)NC(=O)[C@@H]1CCCN1C(=O)[C@@H](N)[C@@H](C)O)C(=O)N[C@@H](CCCCN)C(=O)N[C@@H](CCCNC(=N)N)C(=O)N(C)CC(=O)O` (H-TPRERRRAKR[Sar]-OH): the inhibition constant (Ki) was > 100 nM.

With H-TPQRARRRKKRA-OH, the inhibitory constant (Ki) came to 115 nM.

`C[C@H](NC(=O)[C@H](CCCN=C(N)N)NC(=O)[C@@H]1CCCN1C(=O)[C@@H](N)[C@@H](C)O)C(=O)N[C@@H](CCCN=C(N)N)C(=O)N[C@@H](CCCN=C(N)N)C(=O)N[C@@H](CCCN=C(N)N)C(=O)N[C@@H](CCCCN)C(=O)N[C@@H](CCCCN)C(=O)N[C@@H](CCCN=C(N)N)C(=O)O` yielded a Ki of 138 nM.

Regarding H-TPRGRRRKKRG-OH, the inhibition constant Ki is > 100 nM.

With H-TPRPRRRKKRG-NH2, the inhibition constant Ki was > 100 nM.

For the molecule `CSCC[C@H](NC(=O)[C@H](CCCN=C(N)N)NC(=O)[C@H](CCCCN)NC(=O)[C@H](CCCCN)NC(=O)[C@H](CCCN=C(N)N)NC(=O)[C@H](CCCN=C(N)N)NC(=O)[C@H](CCCN=C(N)N)NC(=O)[C@H](C)NC(=O)[C@H](CCCN=C(N)N)NC(=O)[C@@H]1CCCN1C(=O)[C@@H](N)[C@@H](C)O)C(N)=O`, the Ki was > 100 nM.

For the molecule `C[C@@H](O)[C@H](N)C(=O)N1CCC[C@H]1C(=O)N[C@@H](CCCN=C(N)N)C(=O)NC1(C(=O)N[C@@H](CCCN=C(N)N)C(=O)N[C@@H](CCCN=C(N)N)C(=O)N[C@@H](CCCN=C(N)N)C(=O)N[C@@H](CCCCN)C(=O)N[C@@H](CCCCN)C(=O)N[C@@H](CCCN=C(N)N)C(=O)NCC(=O)O)CCCC1`, the Ki is > 100 nM.

Turning to H-TPRARRRKKRK-OH, the Ki was > 100 nM.

Turning to H-TPRERRRKAR-OH, the Ki was > 100 nM.

On to H-TPRARRRKKRP-NH2, for which the Ki is > 100 nM.

For the molecule H-TPRARRRKKRG-OH, the affinity corresponds to a Ki of 57 nM.
